In the Deep4Chem optical property database:

Experiment: solvent given as SMILES

SMILES | emission maximum (in CC#N) | emission maximum (in CO) | emission maximum (in Cc1ccccc1) | emission maximum (in ClCCl) | emission maximum (in C1CCOC1) | further results
COc1cc(N(c2ccccc2)c2ccccc2)ccc1C=C(C#N)C#N | 581 nm | 562 nm | 525 nm | 590 nm |  | emission maximum (in C1COCCO1): 548 nm; emission maximum (in CC(C)=O): 587 nm; emission maximum (in CCOC(C)=O): 573 nm; emission maximum (in CN(C)C=O): 558 nm; emission maximum (in ClC(Cl)Cl): 567 nm
Cc1ccc(C2=CC(c3ccc(C)cc3)=[N+]3C2=Nc2c(-c4ccc(C)cc4)cc(-c4ccc(C)cc4)n2[B-]3(F)F)cc1 |  |  |  |  |  | emission maximum (in ClC(Cl)Cl): 697 nm
CCCCCCN1C(=O)c2cccc3c(-c4ccc(-c5ccc(-c6ccc7c8c(cccc68)C(=O)N(CCCCCC)C7=O)s5)s4)ccc(c23)C1=O |  |  |  |  |  | emission maximum (in ClC(Cl)Cl): 542 nm
C#Cn1c(-c2cc(-c3nc4ccccc4n3C#C)cc(-c3nc4ccccc4n3C#C)c2)nc2ccccc21 |  |  |  |  | 386.5 nm | 
CC(C)(C)c1ccc(C2=C(c3ccc(N4c5ccccc5C(C)(C)c5ccccc54)cc3)S(=O)(=O)c3c2sc(-c2ccc(N4c5ccccc5C(C)(C)c5ccccc54)cc2)c3-c2ccc(C(C)(C)C)cc2)cc1 |  |  |  |  | 581 nm | 
O=C(O)CCCOc1cccc(-c2c3nc(cc4ccc([nH]4)c(-c4cccc(OCCCC(=O)O)c4)c4nc(cc5ccc2[nH]5)C=C4)C=C3)c1 |  |  |  |  |  | emission maximum (in CS(C)=O): 632 nm
Cc1ccc(C)n1-c1ccc(C#N)cc1 |  |  |  | 517 nm | 501 nm | emission maximum (in CCCCCC): 406 nm; emission maximum (in CCCCCl): 480 nm; emission maximum (in CCOCC): 479 nm
CC1(C)C2=[N+](CCCCCC(=O)NCCNC(=O)CCCCCN3/C(=C/C=C/C=C/C=C/2)C(C)(C)c2cc(S(=O)(=O)[O-])ccc23)c2ccc(S(=O)(=O)[O-])cc21 |  | 778 nm |  |  |  | emission maximum (in O): 770 nm
CC(C)(C)c1ccc2oc3nc4oc5ccc(-n6c7ccc(C(C)(C)C)cc7c7cc(C(C)(C)C)ccc76)cc5c4cc3c2c1 |  |  |  |  |  | emission maximum (in ClC(Cl)Cl): 444 nm
CN(c1ccccc1)c1ccc(-c2ccc(-c3ccc(N(C)c4ccccc4)cc3)c3nc(-c4ccccc4)c(-c4ccccc4)nc23)cc1 | 659 nm |  | 627 nm |  | 638 nm | emission maximum (in CCCCCC): 598 nm; emission maximum (in CN(C)C=O): 661 nm; emission maximum (in ClC(Cl)Cl): 640 nm
CCCCN1c2ccccc2Sc2cc(/C=C/C3=Nc4ccc5ccccc5c4C3(C)C)ccc21 | 610 nm | 635 nm | 550 nm | 595 nm | 571 nm | emission maximum (in C1CCCCC1): 517 nm; emission maximum (in C1COCCO1): 562 nm; emission maximum (in CC(C)=O): 598 nm; emission maximum (in CC(C)O): 602 nm; emission maximum (in CCOC(C)=O): 564 nm; emission maximum (in CCOCC): 546 nm; emission maximum (in CS(C)=O): 612 nm
Fc1ccc(C2=[N+]3C(=Nc4c5ccccc5c(-c5ccc(F)cc5)n4[B-]3(F)F)c3ccccc32)cc1 |  |  |  | 724 nm |  | 
COc1cc(OC)cc(C2=[O+][B-](F)(F)OC(c3cccs3)=C2)c1 |  |  | 502.25 nm | 567 nm |  | emission maximum (in CCCCCC): 434.88 nm
COc1cc(-c2cc(-c3ccc(C)cc3)nc3c(C#N)c(N4CCCC4)nc(N)c23)cc(OC)c1OC | 525 nm | 526 nm |  | 515 nm |  | emission maximum (in CC(C)=O): 521 nm; emission maximum (in CC(C)O): 513 nm; emission maximum (in ClC(Cl)Cl): 509 nm; emission maximum (in c1ccccc1): 508 nm
CC(C)(C)c1ccc2c(c1)B1c3cc(C(C)(C)C)ccc3Oc3cc(-n4c5ccccc5c5c6c(c7ccccc7n6-c6ccccc6)c6c(c7ccccc7n6-c6ccccc6)c54)cc(c31)O2 |  |  | 456 nm |  |  | 
COc1ccc(-c2cc(-c3ccc(C#N)cc3)nn2C)cc1 |  |  |  | 384 nm |  | 
CC1=C(c2ccccc2)C2=Cc3c(-c4ccccc4)c(C)c(C)n3[B-](F)(F)[N+]2=C1C | 549 nm |  |  |  |  | 
c1ccc2c(c1)-c1ccccc1C21c2ccccc2-c2sc3c(c21)C1(c2ccccc2-c2ccccc21)c1ccccc1-3 |  |  |  |  | 403 nm | 
Cc1cccc2ccccc12 |  |  |  |  |  | emission maximum (in C1CCCCC1): 339.9 nm
CCc1ccc(/C=C/c2ccc(-c3nnc(-c4ccc(-c5cc6ccccc6s5)cc4)o3)cc2)cc1 | 421 nm | 426 nm |  |  |  | emission maximum (in CC(C)=O): 420 nm; emission maximum (in CCCCCCCC): 389 nm; emission maximum (in CCCCCCCCCCO): 420 nm; emission maximum (in CCCCCCCCO): 421 nm; emission maximum (in CCCCCO): 421 nm; emission maximum (in CCCO): 422 nm; emission maximum (in CN(C)C=O): 429 nm; emission maximum (in CS(C)=O): 433 nm
CCOC(=O)c1ccc(O)c(-c2[nH]c(=O)n3c2-c2ccccc2C3=O)c1 | 476 nm | 490 nm |  | 474 nm |  | 
Oc1ccc2ccccc2c1C1Nc2cccc3cccc(c23)N1 | 540 nm | 476 nm | 468 nm |  |  | emission maximum (in CS(C)=O): 528 nm
Cc1c(C2=[N+]3C(=Cc4c(C)c5ccccc5n4[B-]3(F)F)c3ccccc32)[nH]c2ccccc12 | 637 nm | 643 nm | 656 nm | 648 nm | 646 nm | emission maximum (in CCCCCC): 644 nm
